Source: PMC11434980, “Deciphering Chemical Rules for Drug Penetration into Strongyloides” (Pharmaceutics, 2024)
Where “and” joins values, the source holds several entries; their conditions need not be identical. Equal values may be shown once. Read-outs that look alike come from different tables or passages of the source.

Key:
S. venezuelensis L3s [1] = test: microbe, parasite or virus in culture; settings: L3s
Experimental: (§1) Baerman-obtained S. venezuelensis L3s were rinsed twice with distilled water and counted, and 100 to 150 larvae were placed per well in 96-well flat-bottom culture plates. Larvae were incubated at 28 °C for 30 min to allow adaptation and treated with compounds in the range of 0.5–40 µM for 72 h at 28 °C in a humid atmosphere. Mortality was assessed as the lack of any movement detected during 1 min of observation under an inverted microscope (40×), at 24, 48, and 72 h after treatment. The ability to stain the larvae was pointed out when observed; at 72 h, larvae were collected and washed two times with distilled water and placed in a new well to remove the background color and photographed. Pictures were also taken at 24 and 48 h without cleaning the larvae so as not to interfere with the 72 h readout of the experiment. […] All experiments were conducted in triplicate and at least three different times. The antiparasitic activity of the compounds was expressed as the concentration that inhibited the motility of half of the larvae (immobilization concentration 50, IC50).
A total of 15 dyes were tested against S. venezuelensis L3s at a 20 µM concentration. The activity was determined by the number of larvae lacking motility relative to the total number in the well after 1 min of light excitation at 24, 48, and 72 h after treatment.

S. venezuelensis L3s [2] = test: Staining (uptake) of L3 larvae by the dyes; type: cell-based, Strongyloides venezuelensis; settings: for lowest staining concentration (Conc): 72 h
Experimental: as §1

[3] = system: parasitic females of S. venezuelensis; test: In vitro activity against adult females (movement categories); type: cell-based, Strongyloides venezuelensis; settings: 10 µM, 50–70 worms per well
Experimental: Seven to nine days after infection, the mice or rats were euthanized and the small intestine was removed, sliced longitudinally, minced, and placed in a sedimentation cup wrapped in 8 layers of gauze in phosphate-buffered solution (PBS) for two hours at 37 °C. Parasitic females were collected from the sediment and washed twice with saline solution (NaCl 0.15 mol/L) and twice with Roswell Park Memorial Institute 1640 (RPMI 1640) (Gibco, Whaltman, MA, USA) supplemented with 10% heat-inactivated FBS, 100 µg/mL streptomycin, and 100 U/mL penicillin (Gibco, Whaltman, MA, USA) to avoid contamination during the in vitro assays. After collection, females were placed in 96-well plates with supplemented RPMI medium and kept at 37 °C. We tested three different female population densities to explore the effects on the measured activity: 1–3 females, 10–15 females, and 50–70 females per well. At 24 h after plating, the compounds were applied at 10 µM and the anti-parasitic activity was evaluated at 1, 24, 48, and 72 h after treatment based on movement for 30 s observation periods under the microscope (40×). […] All experiments were conducted in duplicate and at least three different times. […]

[4] = system: parasitic females of S. venezuelensis; test: Staining of adult females by the dyes; type: cell-based, Strongyloides venezuelensis; settings: 10 µM
Cytotoxicity, MTT method = type: cell-based, human; settings: human; HeLa cells, 72 h, MTT; read-out: HeLa IC50 (antiproliferative activity / cytotoxicity)
Experimental: (§2) A cytotoxicity test was performed using the HeLa (human cervical cancer) cell line according to the MTT method. Cells were from the ATCC (Manassas, VA, USA). They were cultured at 37 °C in sub-confluent conditions under a 95% humidified atmosphere and 5% CO2 in Dulbecco’s Modified Eagle Medium (DMEM) (Gibco, Whaltman, MA, USA) supplemented with 10% heat-inactivated FBS, 2 mM L-glutamine, 100 U/mL penicillin, and 100 µg/mL streptomycin. […] The antiproliferative activity was measured in triplicate after 72 h using the MTT (3-(4,5-dimethylthiazol-2-yl)-2,5-diphenyltetrazolium bromide) Cell Proliferation Kit (Roche, Boston, MA, USA), following the manufacturer’s specifications. […] The selectivity index (SI = HeLa IC50/L3 IC50) for each compound was calculated to compare the antiparasitic activity with its respective human cell cytotoxicity.

[5] = system: HeLa (human cervical cancer) cell line; test: Cytotoxicity, MTT method; type: cell-based
Experimental: as §2

[6] = system: S. venezuelensis experimental infections of mice; test: In vivo activity in S. venezuelensis experimental infection of mice (eggs in feces, parthenogenetic females); design: species or system Strongyloides venezuelensis; settings: for reduction in the number of parthenogenetic females: day 8 p.i., compared to infection group; for parthenogenetic females recovered per mouse at day 8 p.i.: ivermectin 0.2 mg/kg oral day 5 p.i., dyes 20 mg/kg/day day 0 to 5 p.i.
Experimental: All animals were infected by subcutaneous injection with 3000 […] of S. venezuelensis resuspended in PBS. […] The eggs per gram was reported. The recovery of parasite females was performed as described above. The mean was determined for the eggs per gram (EPG) of feces and parthenogenetic female counts. The color of the feces and urine in the beds was recorded.

[7] = system: parasitic females of S. venezuelensis; test: In vitro activity against adult females (movement categories); type: cell-based, Strongyloides venezuelensis; settings: 72 h
[8] = system: parasitic females of S. venezuelensis; design: method as in PMID 35914566; settings: never achieving complete absence of movement at these concentrations; read-out: IC50 against adult females (literature); cited from earlier work
[9] = read-out: IC50 72 h (immobilization concentration 50 of cultured L3s), 72 h

Row | Compound | Screening 20 µM 72 h (S. venezuelensis L3s [1]; 72 h) | Staining 72 h (L3 staining ability) (S. venezuelensis L3s [2]) | lowest staining concentration (Conc) (S. venezuelensis L3s [2]) | Activity against parasitic females 1 h [3] | Activity against parasitic females 24 h [3] | Activity against parasitic females 48 h [3] | Activity against parasitic females 72 h [3] | Staining of parasitic females [4] | staining of adult females [4] | IC50 at 72 h (Cytotoxicity, MTT method) | reduction in the number of parthenogenetic females [6] | parthenogenetic females recovered per mouse at day 8 p.i. [6] | IC50 (S. venezuelensis L3s [1]; [9]) | effect on adult females [3] | also measured
1 | CN(C)c1ccc(C(=C2C=CC(=[N+](C)C)C=C2)c2ccc(N(C)C)cc2)cc1 [Crystal Violet] | Active | Yes | 2 µM | Healthy | Healthy | Slightly affected | Slightly affected | No | did not stain | 1000 nM | 46.5% | 182 | – | – | selectivity index (SI = HeLa IC50/L3 IC50) ([5]; HeLa IC50 / L3 IC50): 0.31
2 | CN(C)c1ccc2nc3ccc(=[N+](C)C)cc-3sc2c1 [Methylene Blue] | – | Yes | 1 µM | Healthy | Affected | Death | Death | Yes | clearly stained | 1100 nM | – | – | 4300 ± 300 nM | significantly affected | Staining (Time) ([4]; time at which staining of females was seen): 24 h; IC50 [7]: 6020 nM
3 | Ivermectin | Active | – | – | Affected | Affected | Slightly affected | Slightly affected | – | – | – | 91.5% | 29 ± 12.3 and 29 | 1500 ± 300 nM | noticeable spasmodic movement | IC50 (S. venezuelensis L3s [1]; read-out: IC50 24 h (immobilization concentration 50 of cultured L3s), 24 h): 2100 ± 100 nM; IC50 (S. venezuelensis L3s [1]; read-out: IC50 48 h (immobilization concentration 50 of cultured L3s), 48 h): 1600 ± 300 nM; IC50 ([5]; HeLa cells, 72 h, MTT, read-out: HeLa IC50 (antiproliferative activity / cytotoxicity)): 5900 nM; Eggs in feces at peak, day 5 p.i. ([6]; ivermectin (Noromectin) single oral dose 0.2 mg/kg on day 5 p.i.): 20,534 ± 15,961 eggs per gram; IC50 [8]: > 229000 nM
